The target in assay [1] is T1, kappa opioid receptor (KOR) (Homo sapiens, UniProt P41145).
T1 construct: host or cells: U2OS (Tango OPRK1-bla U2OS)
Description: OPRKappa 1 Tango B-Arrestin Assay, antagonist mode (Tango OPRK1-bla U2OS cells, U50488 EC80 challenge). The format is cell-based. The following applies: for Selectivity (MOR/KOR): Kappa selectivity, MOR IC50 / KOR IC50; for IC50: antagonist mode, Tango OPRK1-bla U2OS cells, 6 nM U50488 challenge. From the text: OPRKappa 1 Tango B-Arrestin Assay Protocol-Antagonist Mode. […] The assay uses Tango OPRK1-bla U2OS cells which express OPRK1 linked to a GAL4-VP16 transcription factor via a TEV protease site. The cells also express a β-arrestin/TEV protease fusion protein and a β-lactamase (BLA) reporter gene under the control of a UAS response element. Stimulation of the OPRK1 receptor by agonist causes migration of the β-arrestin fusion protein to the GPCR, and through proteolysis liberates GAL4-VP16 from the receptor. The liberated VP16-GAL4 migrates to the nucleus, where it induces transcription of the BLA gene. BLA expression is monitored by measuring fluorescence resonance energy transfer (FRET) of a cleavable, fluorogenic, cell-permeable BLA substrate. As designed, test compounds that are OPRK1 antagonists inhibit agonist activation and migration of the fusion protein, thus preventing proteolysis of GAL4-VP16 and BLA transcription, leading to no increase in well FRET. Compounds were tested in quadruplicate using a 10-point, 1:3 dilution series starting at a nominal concentration of 10 micromolar.
The Tango OPRK1-U20S Dividing cell line was routinely cultured in 150 mm dishes at 37C, 5% CO2 and 95% relative humidity (RH).
On Day 1 of the assay, 16,000 cells in 10 μL of assay media (DMEM-Glutamax—with Sodium Pyruvate, 10% fetal bovine serum stripped with charcoal-dextran (CDS), 25 mM HEPES, 0.1 mM non-essential amino acids, antibiotic mix (penicillin streptomycin)) were seeded into each well of a 384 Greiner 788092 black low profile, clear bottom, low volume plate, and incubated 16-24 hours at 37° C., 5% CO2 and 95% (RH).
On Day 2, 50 nL of test compound in DMSO was added to the appropriate wells and plates were incubated for 30 min at 37° C. 5% CO2 and 95% (RH). Next was added 0.65 μL of commercially available U50488 OPRK1 agonist or DMSO in assay media: this EC80 Challenge consists of 0.6 μL of 111 nM U50488 to yield a final assay concentration of 6 nM). After incubation for 4 hours at 37° C., 5% CO2 and 95% (RH), 2.5 μL of LiveBLazer™FRET B/G (CCF4-AM) Mix (Soln.'s A,B,C,&D) was added to each well and incubated at room temperature in the dark for 2 hours. Well fluorescence was measured on Perkin Elmer's Envision using an Excitation filter 409 nm, Emission filters at 460 nm and […], bottom read.
(§1) The Percent Inhibition was calculated from the median ratio as follows:
• Tango™OPRK1-bla U20S Cells (Invitrogen K1576) • McCoy's 5A Medium, (Invitrogen 16600-082) • Dialyzed Fetal Bovine Serum, (Invitrogen 26400-036) • Non Essential Amino Acids 100× (Invitrogen part 11140-050) • HEPES (pH 7.3) 1M, (Invitrogen 15630-080) • Sodium Pyruvate 100× (Invitrogen 11360-070) • Penicillin Streptomycin, (Invitrogen 15640) • Trypsin 0.25% EDTA (Invitrogen 25200056) • DPBS without Calcium/Magnesium (Invitrogen 14190-136) • DMEM, High Glucose, GlutaMAX (Invitrogen 10569-010) • Fetal Bovine Serum, Charcoal Stripped (Invitrogen 12676-011) • DMSO Dry (Sigma D2650) • U50488 OPRK1 Agonist MW410.29 (Tocris 67198-19-0) • GNTI dihydrochloride OPRK1 Antagonist MW571.5 (Tocris 1282) • Nor-Binaltorphimine dihydrochloridc MW770.75 (Tocris 0347)
LiveBLAzere™-FRET/BG Loading Mix: (Invitrogen K1030 (5 mg)), composed of Solutions A, B, C, and D: • Solution A (6 μL): LiveBLAzer™-FRET/BG Substrate (CCF4-AM) • Solution B (60 μL) • Solution C (904 μL) • Solution C (must add 250 μl of 1N NaOH to 45 mL of Solution C prior to use) • Solution D (30 μL) [Probinicid] (Sigma P8161) make 200 mM stock in NaOH—H2O.

Assay [2] has as its target T2, mu opioid receptor (MOR) (Homo sapiens, UniProt P35372).
T2 construct: host or cells: U2OS (Discover X OPRMu1-U2OS, PathHunter)
Description: OPRMu1 Discover X β-arrestin Assay, antagonist mode (U2OS cells, DAMGO EC80 challenge). The format is cell-based.
Excerpt: OPRMu1 Discover X—β-arrestin Assay—Antagonist Mode. […] This assay evaluates the OPRMu1 activation in membrane recruitment of β-arrestin. In addition, the assay evaluates GPCR-β-arrestin proximity using low affinity fragment complementation of beta-galactosidase (beta-gal). The assay employs U20S cells, which express OPRMu1 fused to the complementary beta-gal fragment (enzyme acceptor). As designed, compounds that act as antagonists will prevent receptor activation resulting in reduced well luminescence. Compounds were tested in quadruplicate using a 10-point, 1:3 dilution series starting at a nominal concentration of 10 micromolar.
The Discover X OPRMu1-U20S cell line was cultured in 150 mm dishes at 37° C., 5% CO2 and 95% relative humidity (RH).
On Day 1 of the assay, 5000 cells in 20 μL of assay buffer (Discover X's Cell Plating Reagent 5) were seeded into each well of a 384 Corning 3570 standard white plate, and incubated 16-24 hours at 37° C., 5% CO2 and 95% RH.
On Day 2, 100 nL of test compound in DMSO were added to the appropriate wells and the plates were then incubated for 30 min at 37° C. 5% CO2 and 95% RH. Next, 2.2 μL of DAMGO OPRMu1 agonist (commercially available) or DMSO in assay media. (The EC80 Challenge consists of 1.8 μL of 3.7 μM DAMGO, 0.4 μL of Assay Buffer, with a final assay concentration of 303 nM). After incubation for 3 hours at 37° C. 5% CO2, and 95% RH, 10 μL of Path Hunter Detection Mix was added to each well, and the plate was then incubated at room temperature in the dark for 1 hour. Well luminescence was measured on Perkin Elmer's Envision.
as §1
• DMEM Medium, (Invitrogen 11965) • F12 Medium, (Invitrogen 11765) • Heat Inactivated Fetal Bovine Serum, (Invitrogen 10082147) • Non Essential Amino Acids 100× (Invitrogen 11140-050) • HEPES (pH 7.3) 1M, (Invitrogen 15630-080) • Sodium Pyruvate 100× (Invitrogen 11360-070) • Penicillin Streptomycin, (Invitrogen 15640) • Trypsin 0.25% EDTA (Invitrogen 25200056) • DPBS without Calcium/Magnesium (Invitrogen 14190-136) • DMSO Dry (Sigma D2650) • DAMGO OPRMu1 Agonist MW513.19 (Sigma E7384-5MG) • B-Funaltrexamine Hydrochloride OPRM1 Antagonist MW (SIGMA 0003-2MG) • PathHunter Cell Plating 5 Reagent (Discover X 93-0563R5A) • Corning 3750 Standard 384 well white plate with lid.
PathHunter Detection Mix (DiscoverX 93-0001): 1 part Galacton Star/5 parts Emerald II/19 parts PH Cell Assay Buffer.

The results in this text go back to patent US20260115185A1, “QUINOLINE DERIVATIVES WHICH ACT AS KAPPA-OPIOID RECEPTOR ANTAGONISTS” (The Scripps Research Institute, priority 2023, published 2026).

T2 sequence (P35372 whole entry): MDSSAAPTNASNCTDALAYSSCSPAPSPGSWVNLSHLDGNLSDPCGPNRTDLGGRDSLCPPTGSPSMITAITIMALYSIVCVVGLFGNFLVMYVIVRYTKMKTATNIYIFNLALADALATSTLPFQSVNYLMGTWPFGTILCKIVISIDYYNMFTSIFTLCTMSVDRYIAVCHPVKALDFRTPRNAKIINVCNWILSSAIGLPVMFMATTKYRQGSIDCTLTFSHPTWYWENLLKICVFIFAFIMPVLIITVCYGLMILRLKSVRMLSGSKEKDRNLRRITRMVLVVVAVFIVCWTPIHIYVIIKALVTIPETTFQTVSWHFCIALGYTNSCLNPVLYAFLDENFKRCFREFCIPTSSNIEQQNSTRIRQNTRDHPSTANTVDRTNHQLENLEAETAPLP
T1 sequence (P41145 whole entry): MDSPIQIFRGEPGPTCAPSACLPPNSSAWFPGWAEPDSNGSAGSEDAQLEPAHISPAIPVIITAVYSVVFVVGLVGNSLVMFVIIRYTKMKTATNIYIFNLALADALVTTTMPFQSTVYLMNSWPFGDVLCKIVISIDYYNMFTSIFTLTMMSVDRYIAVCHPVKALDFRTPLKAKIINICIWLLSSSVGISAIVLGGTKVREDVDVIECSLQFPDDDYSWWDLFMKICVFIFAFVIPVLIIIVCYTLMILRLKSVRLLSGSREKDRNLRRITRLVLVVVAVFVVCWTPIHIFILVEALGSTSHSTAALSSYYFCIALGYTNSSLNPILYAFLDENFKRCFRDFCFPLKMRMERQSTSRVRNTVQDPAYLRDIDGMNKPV

For the compound `CCc1cc(-c2ccnn2C)c2nc(N3CCC(N[C@@H]4CCOC[C@H]4F)CC3)c(-c3ccn(C)n3)c(C)c2c1` [Compound 22, 1-(6-ethyl-4-methyl-3-(1-methyl-1H-pyrazol-3-yl)-8-(1-methyl-1H-pyrazol-5-yl)quinolin-2-yl)-N-((3S,4R)-3-fluorotetrahydro-2H-pyran-4-yl)piperidin-4-amine], the “Selectivity (MOR/KOR)” value in assay [1] was “++ (between 10- and 100-fold selectivity)”. Also, the IC50 was 1 to 10 nM in assay [1] and 100 to 1000 nM in assay [2].

Take `CCc1cc(-c2ccnn2C)c2nc(N3CCC(N)CC3)c(-c3ccn(C)n3)c(C)c2c1` [Compound 23, 1-(6-ethyl-4-methyl-3-(1-methyl-1H-pyrazol-3-yl)-8-(1-methyl-1H-pyrazol-5-yl)quinolin-2-yl)piperidin-4-amine]: in assay [1], the “Selectivity (MOR/KOR)” value is “+ (less than 10-fold selectivity)” and the IC50 was no less than 100 nM. The compound further registered an IC50 in assay [2] greater than 1000 nM.

For the compound `CCc1cc(-c2ccnn2C)c2nc(N3CCNC4CC43)c(-c3ccn(C)n3)c(C)c2c1` (stereo not drawn) [Compound 24, 2-(2,5-diazabicyclo[4.1.0]heptan-2-yl)-6-ethyl-4-methyl-3-(1-methyl-1H-pyrazol-3-yl)-8-(1-methyl-1H-pyrazol-5-yl)quinoline], in assay [1], the “Selectivity (MOR/KOR)” value is recorded as “+ (less than 10-fold selectivity)” and the IC50 was no less than 100 nM. Besides, the IC50 in assay [2] is greater than 1000 nM.

In the case of `CCc1cc(F)c2nc(N3CCN(CC(C)C)C[C@H]3C)c(-c3nc(C)no3)c(C)c2c1` [Compound 25], in assay [1], the “Selectivity (MOR/KOR)” value was “+++ (between 100- to 1000-fold selective)” and the IC50 was less than 1 nM. The compound also showed an IC50 in assay [2] greater than 1000 nM.

Turning to `CCc1cc(F)c2nc(N3CCN(C4CCOCC4)C[C@@H]3C)c(-c3nc(C)no3)c(C)c2c1` [Compound 27, (S)-5-(6-ethyl-8-fluoro-4-methyl-2-(2-methyl-4-(tetrahydro-2H-pyran-4-yl)piperazin-1-yl)quinolin-3-yl)-3-methyl-1,2,4-oxadiazole], in assay [1], the “Selectivity (MOR/KOR)” value is “++ (between 10- and 100-fold selectivity)”; the IC50 is no less than 100 nM. The IC50 in assay [2] was greater than 1000 nM.

`CCc1cc(F)c2nc(N3CCN(C[C@@H]4CCCO4)C[C@H]3C)c(-c3nc(C)no3)c(C)c2c1` [Compound 29]: in assay [1], the “Selectivity (MOR/KOR)” value was “+++ (between 100- to 1000-fold selective)” and the IC50 was 1 to 10 nM. In assay [2], this compound yielded an IC50 greater than 1000 nM.

As for `CCc1cc(F)c2nc(N3CCN(C[C@H]4CCCO4)C[C@H]3C)c(-c3nc(C)no3)c(C)c2c1` [Compound 30], the “Selectivity (MOR/KOR)” value in assay [1] is “+++ (between 100- to 1000-fold selective)”. The IC50 was 1 to 10 nM in assay [1] and greater than 1000 nM in assay [2].

In the case of `CCc1cc(F)c2nc(N3CCN([C@@H]4CCOC4)C[C@H]3C)c(-c3nc(C)no3)c(C)c2c1` [Compound 31], in assay [1], the “Selectivity (MOR/KOR)” value is “++ (between 10- and 100-fold selectivity)”; the IC50 is no less than 100 nM. Moreover, the IC50 in assay [2] is greater than 1000 nM.

For `CCc1cc(F)c2nc(N3CCN([C@H]4CCOC4)C[C@H]3C)c(-c3nc(C)no3)c(C)c2c1` [Compound 33], the “Selectivity (MOR/KOR)” value in assay [1] is on record as “+++ (between 100- to 1000-fold selective)”. The IC50 is 1 to 10 nM in assay [1] and greater than 1000 nM in assay [2].

As to `CCc1cc(F)c2nc(N3CCN(CC4CCOCC4)C[C@H]3CC)c(-c3nc(C)no3)c(C)c2c1` [Compound 34, (R)-5-(6-ethyl-2-(2-ethyl-4-((tetrahydro-2H-pyran-4-yl)methyl)piperazin-1-yl)-8-fluoro-4-methylquinolin-3-yl)-3-methyl-1,2,4-oxadiazole], the “Selectivity (MOR/KOR)” value in assay [1] was “+ (less than 10-fold selectivity)”. Besides, the IC50 in assay [1] was 10 to 100 nM; in assay [2], 100 to 1000 nM.

As to `CCc1cc(F)c2nc(N3CCN(C[C@@H]4CCCO4)C[C@H]3CC)c(-c3nc(C)no3)c(C)c2c1` [Compound 35], in assay [1], the “Selectivity (MOR/KOR)” value was “++ (between 10- and 100-fold selectivity)”; the 50% inhibitory concentration (IC50) fell in the range of 10 to 100 nM. Also, in assay [2], the IC50 is greater than 1000 nM.

Regarding `CCc1cc(F)c2nc(N3CCN(C[C@H]4CCCO4)C[C@H]3CC)c(-c3nc(C)no3)c(C)c2c1` [Compound 36], in assay [1], the “Selectivity (MOR/KOR)” value is “++ (between 10- and 100-fold selectivity)”. The IC50 in assay [1] is 10 to 100 nM; in assay [2], greater than 1000 nM.

With `COc1cc(F)c2nc(N3CCN(CC4CCOCC4)C[C@H]3C)c(-c3nc(C)no3)c(C)c2c1` [Compound 37, (R)-5-(8-fluoro-6-methoxy-4-methyl-2-(2-methyl-4-((tetrahydro-2H-pyran-4-yl)methyl)piperazin-1-yl)quinolin-3-yl)-3-methyl-1,2,4-oxadiazole], in assay [1], the “Selectivity (MOR/KOR)” value is “++ (between 10- and 100-fold selectivity)”; the IC50 is no less than 100 nM. For the same compound, the IC50 in assay [2] was greater than 1000 nM.

Take `CCc1cc(F)c2nc(N3CCN(CC4CCOCC4)[C@@H](C)C3)c(-c3nc(C)no3)c(C)c2c1` [Compound 38, (S)-5-(6-ethyl-8-fluoro-4-methyl-2-(3-methyl-4-((tetrahydro-2H-pyran-4-yl)methyl)piperazin-1-yl)quinolin-3-yl)-3-methyl-1,2,4-oxadiazole]: in assay [1], the “Selectivity (MOR/KOR)” value is “++ (between 10- and 100-fold selectivity)”; the IC50 was 10 to 100 nM. This compound gave an IC50 in assay [2] greater than 1000 nM.

The term IC50 denotes the concentration needed to halve the response being measured. A low value points to inhibition by little substance.
